Results published in PMC4559964, “Cytotoxicity of selected Cameroonian medicinal plants and Nauclea pobeguinii towards multi-factorial drug-resistant cancer cells” (BMC Complementary and Alternative Medicine, 2015).
Where two headings read alike, the source gives them in different places.

How the values were obtained:
[1] = tested on: HCT116 (p53+/+) colon cancer cells; assay: Resazurin reduction assay, cytotoxicity on HCT116 (p53+/+); format: cell-based; settings: Homo sapiens, read-out: IC50 values of compounds / doxorubicin
Procedure: (§1) The cell lines used in the present work, their origins and their treatments were previously reported. They include drug-sensitive leukemia CCRF-CEM cells, its multidrug-resistant subline CEM/ADR5000 cells, breast cancer MDA-MB-231-pcDNA3 cells, its resistant subline MDA-MB-231-BCRP clone 23) cells, colon HCT116 (p53^+/+) cancer cells, its knockout clones HCT116 (p53^−/−), glioblastoma U87MG cells, its resistant subline U87MG.ΔEGFR cells and normal AML12 hepatocytes. […] Breast cancer cells, transduced with control vector (MDA-MB-231-pcDNA3) or with cDNA for the breast cancer resistance protein BCRP (MDA-MB-231-BCRP clone 23), were maintained under standard conditions as described above for CCRF-CEM cells. Human wild-type HCT116 (p53^+/+) colon cancer cells as well as knockout clones HCT116 (p53^−/−) derived by homologous recombination were a generous gift from Dr. B. Vogelstein and H. Hermeking (Howard Hughes Medical Institute, Baltimore, MD). Human glioblastoma multiforme U87MG cells (non-transduced) and U87MG cell line transduced with an expression vector harboring an epidermal growth factor receptor (EGFR) gene with a genomic deletion of exons 2 through 7 (U87MG.ΔEGFR) were kindly provided by Dr. W. K. Cavenee (Ludwig Institute for Cancer Research, San Diego, CA). MDA-MB-231-BCRP, U87MG.ΔEGFR and HCT116 (p53^−/−) were maintained in DMEM medium containing 10 % FBS (Invitrogen) and 1 % penicillin (100 U/mL)-streptomycin (100 μg/mL) (Invitrogen) and were continuously treated with 800 ng/mL and 400 μg/mL geneticin, respectively. Normal AML12 heptocytes were obtained from the American Type Culture Collection (ATCC, USA). The above medium without geneticin was used to maintain MDA-MB-231, U87MG, HCT116 (p53^+/+) and AML12 cell lines. The cells were passaged twice weekly. All experiments were performed with cells in the logarithmic growth phase.
(§2) The cytotoxicity of the tested samples was performed by resazurin reduction assay as we previously described. Briefly, adherent cells at 1 × 10^4 cells were allowed to attach overnight and were then treated with different concentrations of the studied samples. For suspension cells, aliquots of 2 × 10^4 cells per well were seeded in 96-well-plates in a final volume of 200 μL. […] After 72 h incubation and resazurin (Sigma-Aldrich, Schnelldorf, Germany) staining, fluorescence was measured on an Infinite M2000 Pro™ plate reader (Tecan, Crailsheim, Germany) using an excitation wavelength of 544 nm and an emission wavelength of 590 nm. Each assay was done at least two times, with six replicates each. IC50 values represent the sample concentration required to inhibit 50 % of cell proliferation and were calculated from a calibration curve by linear regression using Microsoft Excel.

normal AML12 hepatocytes = assay: Resazurin reduction assay, cytotoxicity on normal AML12 hepatocytes; format: cell-based; settings: Mus musculus, read-out: IC50 values of compounds / doxorubicin
Procedure: as §1, §2

[2] = tested on: eight tested cancer cell lines; assay: Resazurin reduction assay, summary over the panel of tested cell lines; format: cell-based
Procedure: as §1, §2

[3] = tested on: glioblastoma multiforme U87MG cells; assay: Resazurin reduction assay, cytotoxicity on U87MG; format: cell-based; settings: Homo sapiens, U-87 MG, 72 h, read-out: IC50 values of compounds / doxorubicin
Procedure: as §1, §2

U87MG.ΔEGFR cells = assay: Resazurin reduction assay, cytotoxicity on U87MG.ΔEGFR; format: cell-based, human; settings: for IC50: Homo sapiens, 72 h, read-out: IC50 values of compounds / doxorubicin; for degree of resistance: ratio IC50 U87MG.ΔEGFR / IC50 U87MG
Procedure: as §1, §2

[4] = tested on: breast cancer MDA-MB-231-pcDNA3 cells; assay: Resazurin reduction assay, cytotoxicity on MDA-MB231; format: cell-based; settings: read-out: IC50 values of compounds / doxorubicin
Procedure: as §1, §2

[5] = tested on: HCT116 (p53−/−) colon cancer cells; assay: Resazurin reduction assay, cytotoxicity on HCT116 (p53-/-); format: cell-based, human; settings: for IC50: Homo sapiens, read-out: IC50 values of compounds / doxorubicin; for degree of resistance: ratio IC50 HCT116 (p53−/−) / IC50 HCT116 (p53+/+)
Procedure: (§3) The cell lines used in the present work, their origins and their treatments were previously reported. […] Human wild-type HCT116 (p53^+/+) colon cancer cells as well as knockout clones HCT116 (p53^-/-) derived by homologous recombination were a generous gift from Dr. B. […] (Howard Hughes Medical Institute, Baltimore, MD). Human glioblastoma multiforme U87MG cells (non-transduced) and U87MG cell line transduced with an expression vector harboring an epidermal growth factor receptor (EGFR) gene with a genomic deletion of exons 2 through 7 (U87MG.ΔEGFR) were kindly provided by Dr. W. K. Cavenee (Ludwig Institute for Cancer Research, San Diego, CA). MDA-MB-231-BCRP, U87MG.ΔEGFR and HCT116 (p53^-/-) were maintained in DMEM medium containing 10 % FBS (Invitrogen) and 1 % penicillin (100 U/mL)-streptomycin (100 μg/mL) (Invitrogen) and were continuously treated with 800 ng/mL and 400 μg/mL geneticin, respectively. Normal AML12 heptocytes were obtained from the American Type Culture Collection (ATCC, USA). The above medium without geneticin was used to maintain MDA-MB-231, U87MG, HCT116 (p53^+/+) and AML12 cell lines. The cells were passaged twice weekly. All experiments were performed with cells in the logarithmic growth phase. […] Briefly, adherent cells at 1 × 10^4 cells were allowed to attach overnight and were then treated with different concentrations of the studied samples. For suspension cells, aliquots of 2 × 10^4 cells per well were seeded in 96-well-plates in a final volume of 200 μL. […] After 72 h incubation and resazurin (Sigma-Aldrich, Schnelldorf, Germany) staining, fluorescence was measured on an Infinite […]TM plate reader (Tecan, Crailsheim, Germany) using an excitation wavelength of 544 nm and an emission wavelength of 590 nm. Each assay was done at least two times, with six replicates each.

[6] = tested on: drug-sensitive leukemia CCRF-CEM cells; assay: Resazurin reduction assay, cytotoxicity on CCRF-CEM; format: cell-based; settings: Homo sapiens, 72 h, read-out: IC50 values of compounds / doxorubicin
Procedure: as §1, §2

[7] = tested on: MDA-MB-231-BCRP clone 23 cells; assay: Resazurin reduction assay, cytotoxicity on MDA-MB231/BCRP; format: cell-based; settings: for IC50: MDA-MB-231/BCRP, 72 h, mean ± SD; for degree of resistance: ratio IC50 MDA-MB231/BCRP / IC50 MDA-MB231
Procedure: as §3

[8] = tested on: multidrug-resistant leukemia CEM/ADR5000 cells; assay: Resazurin reduction assay, cytotoxicity on CEM/ADR5000; format: cell-based; settings: for IC50: Homo sapiens, read-out: IC50 values of compounds / doxorubicin; for degree of resistance: ratio IC50 CEM/ADR5000 / IC50 CCRF-CEM
Procedure: as §1, §2

leukemia CCRF-CEM cells = assay: Preliminary cytotoxicity study at a single concentration on CCRF-CEM; format: cell-based; settings: doxorubicin 10 μM, positive control
Procedure: Briefly, adherent cells at 1 × 10^4 cells were allowed to attach overnight and were then treated with different concentrations of the studied samples. For suspension cells, aliquots of 2 × 10^4 cells per well were seeded in 96-well-plates in a final volume of 200 μL. […] Each assay was done at least two times, with six replicates each.

[9] = HCT-116, HCT116 (p53+/+), 72 h, mean ± SD
[10] = all eight tested cancer cell lines, read-out: IC50 over all tested cell lines
[11] = Homo sapiens, MDA-MB-231, 72 h, MDA-MB231, 72 h, mean ± SD
[12] = HCT-116, HCT116 (p53−/−), 72 h, mean ± SD
[13] = MDA-MB231/BCRP, read-out: IC50 values of compounds / doxorubicin
[14] = read-out: IC50 values of compounds / doxorubicin, MDA-MB231/BCRP

IC50 [2, 10]	Structure (SMILES)	IC50 [1, 9]	IC50 (normal AML12 hepatocytes; AML12 normal hepatocytes, 72 h)	IC50 ([3]; U87MG, mean ± SD)	IC50 (U87MG.ΔEGFR cells; U87MG.ΔEGFR, mean ± SD)	IC50 [4, 11]	IC50 [5, 12]	IC50 ([6]; mean ± SD)	IC50 [7, 13]	IC50 ([8]; CEM/ADR5000, 72 h, mean ± SD)	degree of resistance (U87MG.ΔEGFR cells)	degree of resistance [5]	degree of resistance [7]	degree of resistance [8]	further results
> 171 µM	COC(=O)CC(O)(CC(=O)OC)C(=O)OC [Compound 3, citric acid trimethyl ester]	> 171 µM	> 171 µM	> 171 µM	> 171 µM	> 171 µM	> 171 µM	> 171 µM	> 171 µM	> 171 µM	–	–	–	–	–
> 244 µM	O=C(O)/C=C/c1ccc(O)cc1 [Compound 2, p-coumaric acid]	> 244 µM	> 244 µM	> 244 µM	> 244 µM	> 244 µM	> 244 µM	> 244 µM	–	> 244 µM	–	–	–	–	IC50 [7, 14]: > 244 µM
< 100 µM	OC[C@H]1O[C@@H](Oc2cc(O)cc(/C=C/c3ccc(O)cc3)c2)[C@H](O)[C@@H](O)[C@@H]1O [Compound 5, resveratrol β-D-glucopyranoside]	63.8 ± 4.61 µM	> 103 µM	55.6 ± 3.73 µM	47.6 ± 3.29 µM	97.6 ± 7.6 µM	47 ± 4.94 µM	25.1 ± 2.48 µM	–	39.9 ± 2.91 µM	0.86	0.74	0.98	1.59	IC50 [7, 14]: 95.6 ± 8.17 µM

Second part, the compound before the results:

Structure (SMILES)	IC50 [2, 10]	IC50 [1, 9]	IC50 (normal AML12 hepatocytes; AML12 normal hepatocytes, 72 h)	IC50 ([3]; U87MG, mean ± SD)	IC50 (U87MG.ΔEGFR cells; U87MG.ΔEGFR, mean ± SD)	IC50 [4, 11]	IC50 [5, 12]	IC50 ([6]; mean ± SD)	IC50 [7, 13]	IC50 ([8]; CEM/ADR5000, 72 h, mean ± SD)	degree of resistance (U87MG.ΔEGFR cells)	degree of resistance [5]	degree of resistance [7]	degree of resistance [8]	further results
COc1cccc2c1C(=O)c1c(O)c3c(c(O)c1C2=O)C[C@@](O)(C(=O)CO)C[C@@H]3O[C@H]1C[C@H](N)[C@H](O)[C@H](C)O1 [doxorubicin, Doxorubicin, reference compound]	–	–	> 73.6 µM	1.06 ± 0.15 µM	6.11 ± 0.57 µM	–	–	0.2 ± 0.06 µM	–	–	5.76	2.88	7.12	975.60	IC50 ([1]; HCT-116, 72 h): 1.41 ± 0.29 µM; IC50 ([4]; Homo sapiens, MDA-MB-231, MDA-MB231, 72 h, mean ± SD): 1.1 ± 0.28 µM; IC50 ([5]; HCT-116, 72 h): 4.06 ± 0.07 µM; Growth percentage of CCRF-CEM leukemia cells (leukemia CCRF-CEM cells): 13.6%
C=C[C@H]1[C@H](O[C@@H]2O[C@H](CO)[C@@H](O)[C@H](O)[C@H]2O)OC=C2C(=O)N3CCc4c([nH]c5ccccc45)[C@@H]3C[C@H]21 [Compound 6, strictosamide]	–	–	–	–	–	–	–	–	78.3 ± 6.22 µM	–	–	–	< 0.97	> 1.04	IC50 ([1]; HCT-116, 72 h): > 80.3 µM; IC50 (normal AML12 hepatocytes; AML12, 72 h): > 80.3 µM; IC50 ([2]; read-out: IC50): < 80.3 µM; IC50 [3]: > 80.3 µM; IC50 (U87MG.ΔEGFR cells): > 80.3 µM; IC50 ([4]; Homo sapiens, MDA-MB-231, 72 h): > 80.3 µM; IC50 ([5]; HCT-116, 72 h): > 80.3 µM; IC50 [6]: 77.1 ± 5.87 µM; IC50 ([8]; ADR5000, 72 h): > 80.3 µM
Oc1ccc(/C=C/c2cc(O)cc(O)c2)cc1 [Compound 4, resveratrol]	–	73.7 ± 5.67 µM	> 175 µM	76.6 ± 4.92 µM	28.4 ± 2.06 µM	< 23 µM	> 175 µM	28.2 ± 1.32 µM	–	57.4 ± 3.67 µM	0.37	> 2.38	–	2.04	IC50 ([2]; seven out of eight cell lines, read-out: IC50): < 175 µM; IC50 ([4]; MDA-MB231, 72 h, mean ± SD): 19.9 ± 1.45 µM
CC(=O)O[C@H]1CC[C@]2(C)[C@H]3C(=O)C=C4[C@@H]5[C@@H](C)[C@H](C)CC[C@]5(C)CC[C@@]4(C)[C@]3(C)CC[C@H]2C1(C)C [Compound 1, 3-acetoxy-11-oxo-urs-12-ene]	> 82.9 µM	> 82.9 µM	> 82.9 µM	> 82.9 µM	> 82.9 µM	> 82.9 µM	> 82.9 µM	> 82.9 µM	> 82.9 µM	> 82.9 µM	–	–	–	–	–
